Measurements taken from patent US9592221B2, “Antibacterial agents: aryl myxopyronin derivatives” (priority 2012, dated 2017).
≈ marks a conversion by molar mass, not a printed value.

What was measured:
[1] = test system: methicillin-resistant Staphylococcus aureus (MRSA) strain BAA-1707 (USA-400; MW2); experiment: MIC, spiral gradient endpoint assay, MRSA BAA-1707; format: cell-based; conditions: for MIC: Staphylococcus aureus, read-out: MIC S. aureus MRSA BAA-1707
[2] = test system: Burkholderia pseudomallei Human/Blood/OH/US/1994; experiment: microbe, parasite or virus in culture; format: cell-based; conditions: for MIC: Burkholderia pseudomallei, read-out: MIC B. pseudomallei Human/Blood/OH
[3] = test system: Burkholderia mallei CHN7; experiment: microbe, parasite or virus in culture; format: cell-based; conditions: for MIC: Burkholderia mallei, CHN7, read-out: MIC B. mallei CHN7
[4] = test system: linezolid-resistant Staphylococcus aureus (LRSA) strain NRS 120; experiment: MIC, spiral gradient endpoint assay, LRSA NRS 120; format: cell-based; conditions: for MIC: Staphylococcus aureus, NRS120, read-out: MIC S. aureus LRSA NRS120
[5] = test system: Staphylococcus aureus ATCC 12600; experiment: MIC, spiral gradient endpoint assay, S. aureus ATCC 12600; format: cell-based; conditions: ATCC12600; for MIC: Staphylococcus aureus ATCC 12600
[6] = test system: methicillin-resistant Staphylococcus aureus (MRSA) strain BAA-1717 (USA-300); experiment: MIC, spiral gradient endpoint assay, MRSA BAA-1717; format: cell-based; conditions: for MIC: Staphylococcus aureus, read-out: MIC S. aureus MRSA BAA-1717
[7] = test system: Brucella melitensis 16M; experiment: microbe, parasite or virus in culture; format: cell-based; conditions: for MIC: Brucella melitensis, 16M, read-out: MIC B. melitensis 16M
[8] = test system: methicillin-resistant Staphylococcus aureus (MRSA) strain BAA-1707 (USA-400, MW2); experiment: Antibacterial efficacy in mouse model of Staphylococcus aureus systemic infection (peritonitis model); format: in vivo, Swiss Webster mice; conditions: mice
[9] = biological target: E. coli RNA polymerase σ^70 holoenzyme (Escherichia coli, UniProt P0A8T7+P0A8V2); experiment: Fluorescence-detected RNA polymerase assay, E. coli RNA polymerase; format: biochemical; conditions: read-out: IC50 E. coli RNAP
[10] = test system: Acinetobacter baumannii ATCC 19606; experiment: MIC, spiral gradient endpoint assay, A. baumannii; format: cell-based; conditions: for MIC: ATCC19606
[11] = test system: Francisella tularensis SCHU4; experiment: microbe, parasite or virus in culture; format: cell-based; conditions: for MIC: Francisella tularensis, SCHU4, read-out: MIC F. tularensis SCHU4
[12] = test system: rifampin-resistant Staphylococcus aureus (RRSA) strain ATCC 12600-Rif (H526N); experiment: MIC, spiral gradient endpoint assay, RRSA 12600-Rif; format: cell-based; conditions: for MIC: Staphylococcus aureus, ATCC12600, read-out: MIC S. aureus RRSA 12600-Rif
[13] = test system: Mycobacterium tuberculosis H37Rv; experiment: MIC, microplate Alamar Blue assay, M. tuberculosis; format: cell-based
[14] = test system: vancomycin-intermediate Staphylococcus aureus (VISA) strain NRS 1; experiment: MIC, spiral gradient endpoint assay, VISA NRS 1; format: cell-based; conditions: for MIC: Staphylococcus aureus, read-out: MIC S. aureus VISA NRS1
[15] = test system: Escherichia coli D21f2tolC; experiment: MIC, spiral gradient endpoint assay, E. coli D21f2tolC; format: cell-based; conditions: for MIC: Escherichia coli, D21F2TOLC, read-out: MIC E. coli D21f2toIC
[16] = test system: Bacillus anthracis Vollum 1b; experiment: microbe, parasite or virus in culture; format: cell-based; conditions: for MIC: Bacillus anthracis, VOLLUM1B, read-out: MIC B. anthracis Vollum-1b
[17] = test system: Yersinia pestis C092; experiment: microbe, parasite or virus in culture; format: cell-based
[18] = biological target: S. aureus RNA polymerase core enzyme, S. aureus σ^A (Staphylococcus aureus, UniProt P47768+Q2G0N5); experiment: Fluorescence-detected RNA polymerase assay, S. aureus RNA polymerase; format: biochemical; conditions: read-out: IC50 S. aureus RNAP
[19] = biological target: M. tuberculosis RNA polymerase core enzyme, M. tuberculosis σ^A (Mycobacterium tuberculosis, UniProt P9WGY7+P9WGY9); experiment: Fluorescence-detected RNA polymerase assay, M. tuberculosis RNA polymerase; format: biochemical; conditions: read-out: IC50 M. tuberculosis RNAP
[20] = intravenous administration 0 h post-infection
[21] = Acinetobacter baumannii ATCC 19606
[22] = oral administration 1 h pre-infection

Chain of E. coli RNA polymerase σ^70 holoenzyme (P0A8T7 whole entry): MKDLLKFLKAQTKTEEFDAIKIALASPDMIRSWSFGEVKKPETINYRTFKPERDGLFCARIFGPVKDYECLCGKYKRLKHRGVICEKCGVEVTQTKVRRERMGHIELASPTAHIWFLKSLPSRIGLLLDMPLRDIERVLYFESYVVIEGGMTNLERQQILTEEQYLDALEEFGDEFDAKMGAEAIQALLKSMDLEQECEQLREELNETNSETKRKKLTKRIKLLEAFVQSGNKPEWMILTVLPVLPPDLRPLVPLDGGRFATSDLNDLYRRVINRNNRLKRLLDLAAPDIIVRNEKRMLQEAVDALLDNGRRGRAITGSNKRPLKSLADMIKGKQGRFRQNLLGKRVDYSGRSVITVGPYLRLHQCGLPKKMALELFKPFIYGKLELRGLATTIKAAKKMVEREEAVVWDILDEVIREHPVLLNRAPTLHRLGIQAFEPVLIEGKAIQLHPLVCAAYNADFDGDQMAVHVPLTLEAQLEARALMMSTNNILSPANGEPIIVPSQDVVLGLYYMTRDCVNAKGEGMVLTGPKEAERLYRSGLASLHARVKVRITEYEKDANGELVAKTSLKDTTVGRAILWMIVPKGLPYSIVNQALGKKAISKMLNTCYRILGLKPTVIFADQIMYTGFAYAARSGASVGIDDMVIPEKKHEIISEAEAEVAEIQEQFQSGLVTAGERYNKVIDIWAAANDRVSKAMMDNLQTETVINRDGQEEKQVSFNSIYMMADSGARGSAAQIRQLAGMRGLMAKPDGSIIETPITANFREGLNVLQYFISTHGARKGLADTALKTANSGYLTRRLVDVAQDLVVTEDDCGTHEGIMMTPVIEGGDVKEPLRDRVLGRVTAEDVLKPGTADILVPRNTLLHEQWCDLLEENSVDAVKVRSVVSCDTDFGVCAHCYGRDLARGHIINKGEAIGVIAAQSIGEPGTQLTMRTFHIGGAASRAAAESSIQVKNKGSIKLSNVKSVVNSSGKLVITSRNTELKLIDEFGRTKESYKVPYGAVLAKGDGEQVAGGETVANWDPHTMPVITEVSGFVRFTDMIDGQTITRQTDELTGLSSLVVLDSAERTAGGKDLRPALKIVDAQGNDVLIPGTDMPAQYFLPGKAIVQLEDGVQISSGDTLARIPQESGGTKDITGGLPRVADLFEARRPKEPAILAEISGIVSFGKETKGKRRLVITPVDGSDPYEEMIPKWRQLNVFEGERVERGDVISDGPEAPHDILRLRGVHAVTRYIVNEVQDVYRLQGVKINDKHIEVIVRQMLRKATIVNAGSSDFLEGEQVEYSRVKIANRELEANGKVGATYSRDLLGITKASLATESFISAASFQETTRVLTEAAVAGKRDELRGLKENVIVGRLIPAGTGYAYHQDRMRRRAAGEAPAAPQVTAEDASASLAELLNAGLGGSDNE
Chain of E. coli RNA polymerase σ^70 holoenzyme (P0A800 whole entry, further chain): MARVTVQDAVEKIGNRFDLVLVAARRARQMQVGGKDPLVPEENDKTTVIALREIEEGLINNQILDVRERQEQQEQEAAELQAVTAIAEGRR
Chain of E. coli RNA polymerase σ^70 holoenzyme (P0A8V2 whole entry): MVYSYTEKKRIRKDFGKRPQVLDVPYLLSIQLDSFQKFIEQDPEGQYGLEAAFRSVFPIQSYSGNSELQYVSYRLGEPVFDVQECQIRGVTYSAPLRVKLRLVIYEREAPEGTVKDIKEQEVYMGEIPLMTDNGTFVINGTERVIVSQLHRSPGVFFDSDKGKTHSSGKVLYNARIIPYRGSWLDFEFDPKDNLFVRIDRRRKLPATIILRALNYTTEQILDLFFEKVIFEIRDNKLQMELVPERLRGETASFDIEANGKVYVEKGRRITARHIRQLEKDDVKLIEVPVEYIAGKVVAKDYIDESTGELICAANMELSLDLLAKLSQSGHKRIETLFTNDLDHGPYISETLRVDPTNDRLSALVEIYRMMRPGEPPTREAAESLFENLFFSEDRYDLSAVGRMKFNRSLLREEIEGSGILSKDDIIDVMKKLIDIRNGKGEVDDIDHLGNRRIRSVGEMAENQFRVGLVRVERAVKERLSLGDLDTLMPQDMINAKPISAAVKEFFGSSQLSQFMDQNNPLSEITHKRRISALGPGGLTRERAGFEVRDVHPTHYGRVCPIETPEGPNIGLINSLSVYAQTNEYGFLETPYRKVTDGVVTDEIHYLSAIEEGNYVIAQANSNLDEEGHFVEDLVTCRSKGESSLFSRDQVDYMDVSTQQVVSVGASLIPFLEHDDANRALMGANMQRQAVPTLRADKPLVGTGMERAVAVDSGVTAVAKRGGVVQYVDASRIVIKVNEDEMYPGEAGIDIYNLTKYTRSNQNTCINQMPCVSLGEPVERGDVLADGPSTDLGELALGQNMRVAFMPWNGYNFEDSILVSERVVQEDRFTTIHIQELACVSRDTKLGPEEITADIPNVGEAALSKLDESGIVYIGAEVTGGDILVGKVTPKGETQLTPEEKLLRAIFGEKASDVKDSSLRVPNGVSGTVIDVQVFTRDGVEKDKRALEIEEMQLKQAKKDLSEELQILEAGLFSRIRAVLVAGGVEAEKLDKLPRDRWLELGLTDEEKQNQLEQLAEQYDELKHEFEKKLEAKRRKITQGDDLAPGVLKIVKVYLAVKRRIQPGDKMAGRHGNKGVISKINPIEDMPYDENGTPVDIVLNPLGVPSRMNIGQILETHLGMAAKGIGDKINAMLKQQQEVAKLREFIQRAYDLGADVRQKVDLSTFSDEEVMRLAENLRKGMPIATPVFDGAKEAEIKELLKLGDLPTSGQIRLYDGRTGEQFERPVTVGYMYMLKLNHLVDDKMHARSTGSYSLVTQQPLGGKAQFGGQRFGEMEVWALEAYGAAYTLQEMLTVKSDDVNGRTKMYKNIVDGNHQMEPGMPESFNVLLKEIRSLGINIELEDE
Chain of E. coli RNA polymerase σ^70 holoenzyme (P00579 whole entry, further chain): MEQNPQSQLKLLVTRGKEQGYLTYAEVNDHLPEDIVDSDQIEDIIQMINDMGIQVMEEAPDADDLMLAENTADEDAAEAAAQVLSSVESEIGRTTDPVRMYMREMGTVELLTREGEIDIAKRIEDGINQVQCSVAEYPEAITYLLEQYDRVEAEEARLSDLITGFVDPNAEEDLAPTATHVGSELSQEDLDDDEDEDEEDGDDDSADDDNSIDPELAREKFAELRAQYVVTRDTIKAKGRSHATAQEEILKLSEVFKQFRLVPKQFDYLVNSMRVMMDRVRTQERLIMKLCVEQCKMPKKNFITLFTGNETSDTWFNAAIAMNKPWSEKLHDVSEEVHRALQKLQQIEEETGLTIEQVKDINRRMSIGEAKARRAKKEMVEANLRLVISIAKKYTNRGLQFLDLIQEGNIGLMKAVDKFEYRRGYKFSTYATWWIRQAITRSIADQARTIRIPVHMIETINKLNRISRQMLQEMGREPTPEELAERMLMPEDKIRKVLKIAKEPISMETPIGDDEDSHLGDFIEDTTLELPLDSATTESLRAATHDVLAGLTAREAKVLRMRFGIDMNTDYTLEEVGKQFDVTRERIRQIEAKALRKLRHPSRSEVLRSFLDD
Chain of E. coli RNA polymerase σ^70 holoenzyme (P0A7Z4 whole entry, further chain): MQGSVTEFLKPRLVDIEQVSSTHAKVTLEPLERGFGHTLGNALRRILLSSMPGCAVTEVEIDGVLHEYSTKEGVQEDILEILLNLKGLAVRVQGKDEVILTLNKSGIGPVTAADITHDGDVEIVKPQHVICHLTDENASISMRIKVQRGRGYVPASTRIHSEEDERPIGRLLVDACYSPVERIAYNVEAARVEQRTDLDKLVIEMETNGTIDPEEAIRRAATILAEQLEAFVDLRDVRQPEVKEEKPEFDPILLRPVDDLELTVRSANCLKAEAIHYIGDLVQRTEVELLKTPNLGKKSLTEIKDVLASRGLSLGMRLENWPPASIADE

COC(=O)N/C=C/CCC(C)c1cc(O)c(C(=O)C(C)=Cc2ccc(CCC(F)(F)F)s2)c(=O)o1 (mixture of isomers) [APY61, methyl (E)-5-(5-((E/Z)-3-(5-(3,3,3-trifluoropropyl)thiophen-2-yl)-2-methylacryloyl)-4-hydroxy-6-oxo-6H-pyran-2-yl)hex-1-enylcarbamate] was tested, and the MIC [1] was 0.9 µg/mL, the MIC [2] was 30 µg/mL and the MIC [3] was 30 µg/mL. The MIC [4] was 0.4 µg/mL, the MIC [5] was 0.7 µg/mL and the MIC [6] was 0.9 µg/mL. For the same compound, the MIC [7] was greater than 50 µg/mL, the PD50 [8, 20] was 20 mg/kg and the IC50 [9] was 0.02 µM. It also gave an MIC [10, 21] of 10 µg/mL, an MIC [11] of 30 µg/mL and an MIC [12] of 1 µg/mL. It also gave an MIC [13] of 10 µg/mL, an MIC [14] of 0.4 µg/mL and an MIC [15] of 0.2 µg/mL. For the same compound, the MIC [16] was 6 µg/mL.
Compound COC(=O)N/C=C/CCC(C)c1cc(O)c(C(=O)C(C)=Cc2ccc(CC(C)C)s2)c(=O)o1 (mixture of isomers) [APY60, methyl (E)-5-(4-hydroxy-5-((E/Z)-3-(5-isobutylthiophen-2-yl)-2-methylacryloyl)-6-oxo-6H-pyran-2-yl)hex-1-enylcarbamate] has an MIC [1] of 0.4 µg/mL, an MIC [2] of 30 µg/mL and an MIC [3] of 30 µg/mL. For the same compound, the MIC [5] was 0.4 µg/mL, the MIC [6] was 0.5 µg/mL and the MIC [7] was 6 µg/mL. The PD50 [8, 20] was 20 mg/kg, the IC50 [9] was 0.01 µM and the MIC [10, 21] was 9 µg/mL. It also gave an MIC [11] of 10 µg/mL, an MIC [12] of 0.7 µg/mL and an MIC [13] of 10 µg/mL. It also gave an MIC [15] of 0.2 µg/mL and an MIC [16] of 3 µg/mL.
COC(=O)N/C=C/CCC(C)c1cc(O)c(C(=O)C(C)=Cc2ccc(OCC(F)(F)F)s2)c(=O)o1 (mixture of isomers) [APY116, methyl ((1E)-5-(4-hydroxy-3-(2-methyl-3-(5-(2,2,2-trifluoroethoxy)thiophen-2-yl)acryloyl)-2-oxo-2H-pyran-6-yl)hex-1-en-1-yl)carbamate] gave an MIC [1] of 2 µg/mL, an MIC [4] of 0.8 µg/mL and an MIC [5] of 1 µg/mL. The MIC [6] was 2 µg/mL, the PD50 [8, 20] was 20 mg/kg and the PD50 [8, 22] was 50 mg/kg. For the same compound, the IC50 [9] was 0.03 µM, the MIC [10, 21] was greater than 40 µg/mL and the MIC [12] was 2 µg/mL. For the same compound, the MIC [13] was 6 µg/mL, the MIC [14] was 0.7 µg/mL and the MIC [15] was 0.2 µg/mL.
CCCC/C(C)=C/C=C(\C)C(=O)c1c(O)cc([C@H](C)CC/C=C/NC(=O)OC)oc1=O [Myx B, myxopyronin B, reference compound] was tested, and the “MIC S. aureus MRSA BAA-1707” value [1] was 0.9 µg/mL (≈ 2.09 µM), the “MIC Y. pestis C092” value [17] was 50 µg/mL (≈ 116 µM) and the “MIC B. pseudomallei Human/Blood/OH” value [2] was 30 µg/mL (≈ 69.5 µM). The “MIC B. mallei CHN7” value [3] was 6 µg/mL (≈ 13.9 µM), the “MIC S. aureus LRSA NRS120” value [4] was 0.5 µg/mL (≈ 1.16 µM) and the IC50 [18] was 0.07 µM. For the same compound, the “MIC S. aureus 12600” value ([5]; Staphylococcus aureus) was 0.8 µg/mL (≈ 1.85 µM), the “MIC S. aureus MRSA BAA-1717” value [6] was 0.8 µg/mL (≈ 1.85 µM) and the “MIC B. melitensis 16M” value [7] was 2 µg/mL (≈ 4.63 µM). For the same compound, the PD50 [8, 20] was 20 mg/kg, the PD50 [8, 22] was 50 mg/kg and the IC50 [19] was 0.1 µM. For the same compound, the IC50 [9] was 0.01 µM, the “inhibition of Acinetobacter baumannii (in words)” value [10] was “does not inhibit” and the “MIC A. baumannii 19606” value [10, 21] was greater than 40 µg/mL. The “MIC F. tularensis SCHU4” value [11] was 2 µg/mL (≈ 4.63 µM), the “MIC S. aureus RRSA 12600-Rif” value [12] was 1 µg/mL (≈ 2.32 µM) and the “MIC M. tuberculosis H37Rv” value [13] was 2 µg/mL (≈ 4.63 µM). For the same compound, the “MIC S. aureus VISA NRS1” value [14] was 0.5 µg/mL (≈ 1.16 µM), the “MIC E. coli D21f2toIC” value ([15]; Escherichia coli D21f2tolC) was 0.1 µg/mL (≈ 0.232 µM) and the “MIC B. anthracis Vollum-1b” value [16] was 6 µg/mL (≈ 13.9 µM).
